In PubChem BioAssay AID2060493 (Molecular Pharmacology Branch, DTP, NCI, 2025):

System: 616215-338-R-J1-PDC tumor spheroids, viability
Assay: Anticancer human tumor 616215-338-R-J1-PDC patient-derived colon adenocarcinoma cell line growth inhibition [GQUAD]
Settings: spheroids with HUVEC and MSC; for IC50: curve of first compound; for viability, T/C: stronger effect = lower value; active = viability on the fitted dose curve at most 10% of control; inactive = the rest
How it was run: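 Tumor cells were grown as complex spheroids with HUVEC endothelial cells and mesenchymal stem cells as stroma. G-quadruplex stabilizers were combined with targeted agents over half-log dilutions from near the clinical Cmax, or from 10 microM.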
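Note: spheroids exposed to agents for 7 days before readout.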
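Throughout, for viability, T/C: percent viability relative to DMSO vehicle control wells taken as 100%.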

Nc1ccn(C2OC(CO)C(O)C2(F)F)c(=O)n1 (configuration not stated) + Cc1cnc(CNC(=O)c2c(=O)c3ccc(N4CCCN(C)CC4)nc3n3c2sc2ccccc23)cn1
< 31.6 nM: IC50 (second compound 0.0316 µM) | IC50 (second compound 0.316 µM) | IC50 (second compound 1 µM) | IC50 (second compound 3.16 µM) | IC50 (second compound 10 µM)
109 nM: IC50 (second compound 0.1 µM)
inactive: viability, T/C (second compound 0.0316 µM, first compound 0.0316 µM) 35.4% | viability, T/C (second compound 0.0316 µM, first compound 0.1 µM) 35.6% | viability, T/C (second compound 0.0316 µM, first compound 0.316 µM) 16.7% | viability, T/C (second compound 0.0316 µM, first compound 1 µM) 14.6% | viability, T/C (second compound 0.0316 µM, first compound 3.16 µM) 17.8% | viability, T/C (second compound 0.0316 µM, first compound 10 µM) 14.1% | viability, T/C (second compound 0.1 µM, first compound 0.0316 µM) 48.2% | viability, T/C (second compound 0.1 µM, first compound 0.1 µM) 56.5% | viability, T/C (second compound 0.1 µM, first compound 0.316 µM) 20.4% | viability, T/C (second compound 0.1 µM, first compound 1 µM) 16.5% | viability, T/C (second compound 0.1 µM, first compound 3.16 µM) 19.9% | viability, T/C (second compound 0.1 µM, first compound 10 µM) 14.9% | viability, T/C (second compound 0.316 µM, first compound 0.0316 µM) 45.8% | viability, T/C (second compound 0.316 µM, first compound 0.1 µM) 26.8% | viability, T/C (second compound 0.316 µM, first compound 0.316 µM) 17.7% | viability, T/C (second compound 0.316 µM, first compound 1 µM) 20.3% | viability, T/C (second compound 0.316 µM, first compound 3.16 µM) 15.1% | viability, T/C (second compound 0.316 µM, first compound 10 µM) 17% | viability, T/C (second compound 1 µM, first compound 0.0316 µM) 32.5% | viability, T/C (second compound 1 µM, first compound 0.1 µM) 30.7% | viability, T/C (second compound 1 µM, first compound 0.316 µM) 24.1% | viability, T/C (second compound 1 µM, first compound 1 µM) 28.2% | viability, T/C (second compound 1 µM, first compound 3.16 µM) 18.3% | viability, T/C (second compound 1 µM, first compound 10 µM) 18.4% | viability, T/C (second compound 3.16 µM, first compound 0.0316 µM) 28.4% | viability, T/C (second compound 3.16 µM, first compound 0.1 µM) 41.8% | viability, T/C (second compound 3.16 µM, first compound 0.316 µM) 24% | viability, T/C (second compound 3.16 µM, first compound 1 µM) 20.4% | viability, T/C (second compound 3.16 µM, first compound 3.16 µM) 16.4% | viability, T/C (second compound 3.16 µM, first compound 10 µM) 23.5% | viability, T/C (second compound 10 µM, first compound 0.0316 µM) 28.4% | viability, T/C (second compound 10 µM, first compound 0.1 µM) 28.8% | viability, T/C (second compound 10 µM, first compound 0.316 µM) 22.4% | viability, T/C (second compound 10 µM, first compound 1 µM) 21% | viability, T/C (second compound 10 µM, first compound 3.16 µM) 20% | viability, T/C (second compound 10 µM, first compound 10 µM) 18.5%
